Assay results taken from patent US20130260025A1, “Group 2 Imidazolate Formulations for Direct Liquid Injection” (AIR PRODUCTS AND CHEMICALS, INC., priority 2012, published 2013).

Experiments:
[1] = Solubility of strontium imidazolate adducts in cyclooctane
Protocol: Solubility was determined by taking a weighed amount of solvent at room temperature, incrementally adding metal complex with mixing until not more could be dissolved then reweighing the resultant solution to permit the weight percentage of metal complex dissolved to be calculated. A fixed volume of the solution was then weighed. […] The moles of metal complex is then divided by the volume of weighed solution in liters to yield the molarity of the solution.

[2] = Solubility of strontium imidazolate adducts in mesitylene; format: physicochemical
From the text: A fixed volume of the solution was then weighed. […] […].

[3] = Thermogravimetric analysis (TGA)/differential scanning calorimetry (DSC); format: physicochemical
Protocol: Thermogravimetric analysis (TGA) of the complexes listed in Tables 1 and 2 were conducted whereby samples were suspended in a microbalance pan under a steady stream of nitrogen while being heated under a constant rate. Weight loss is measured as a function of temperature/time while a differential scanning calorimeter monitors exotherms (decomposition) or endotherms (phase change/melting or evaporative cooling).

[4] = saturated solution in cyclooctane, room temperature
[5] = saturated solution in mesitylene, room temperature

CC(C)(C)c1nc(C(C)(C)C)c(C(C)(C)C)[n-]1.CC(C)(C)c1nc(C(C)(C)C)c(C(C)(C)C)[n-]1.COC(C)OC.[Sr+2] [Strontium bis(2,4,5-tri-tert-butylimidazolate)(1,1-dimethoxyethane)]
Molarity of strontium complex [1, 4]: 0.03 M
Wt % of strontium complex [1, 4]: 2.1 Wt %
Molarity of strontium complex [2, 5]: 0.13 M
Wt % of strontium complex [2, 5]: 9.0 Wt %

CC(C)(C)c1nc(C(C)(C)C)c(C(C)(C)C)[n-]1.CC(C)(C)c1nc(C(C)(C)C)c(C(C)(C)C)[n-]1.CC1CCOC1.[Sr+2] [Strontium bis(2,4,5-tri-tert-butylimidazolate)(3-methyltetrahydrofuran)]
Molarity of strontium complex [1]: 0.05 M
Wt % of strontium complex [1]: 3.5 Wt %
Molarity of strontium complex [2]: 0.44 M
Wt % of strontium complex [2]: 28.8 Wt %
times more soluble in mesitylene than parent complex [2]: 9-13 times

CC(C)(C)c1nc(C(C)(C)C)c(C(C)(C)C)[n-]1.CC(C)(C)c1nc(C(C)(C)C)c(C(C)(C)C)[n-]1.COCC(C)OC.[Sr+2] [Strontium bis(2,4,5-tri-tert-butylimidazolate)(1,2-dimethoxypropane)]
Molarity of strontium complex [1]: 0.04 M
Wt % of strontium complex [1]: 2.8 Wt %
Molarity of strontium complex [2]: 0.093 M
Wt % of strontium complex [2]: 7.3 Wt %

CC(C)(C)c1nc(C(C)(C)C)c(C(C)(C)C)[n-]1.CC(C)(C)c1nc(C(C)(C)C)c(C(C)(C)C)[n-]1.CN(C)CCN(C)C.[Sr+2] [Strontium bis(2,4,5-tri-tert-butylimidazolate)(tetramethylethlenediamine)]
Molarity of strontium complex [1, 4]: 0.02 M
Wt % of strontium complex [1, 4]: 1.8 Wt %
Molarity of strontium complex [2, 5]: 0.041 M
Wt % of strontium complex [2, 5]: 3.3 Wt %

C1CCOC1.CC(C)(C)c1nc(C(C)(C)C)c(C(C)(C)C)[n-]1.CC(C)(C)c1nc(C(C)(C)C)c(C(C)(C)C)[n-]1.[Sr+2] [Strontium bis(2,4,5-tri-tert-butylimidazolatee)(tetrahydrofuran)]
Molarity of strontium complex [1, 4]: 0.35 M
Wt % of strontium complex [1, 4]: 23.6 Wt %
Molarity of strontium complex [2, 5]: 0.6 M
Wt % of strontium complex [2, 5]: 28.2 Wt %
temperature at which weight loss associated with loss of tetrahydrofuran significantly begins ([3]; TGA under nitrogen stream, constant heating rate, FIG. 7): ≥ 100 °C

C1=CCOC1.CC(C)(C)c1nc(C(C)(C)C)c(C(C)(C)C)[n-]1.CC(C)(C)c1nc(C(C)(C)C)c(C(C)(C)C)[n-]1.[Sr+2] [Strontium bis(2,4,5-tri-tert-butylimidazolate)(2,5-dihydrofuran)]
Molarity of strontium complex [1]: 0.37 M
Wt % of strontium complex [1]: 24 Wt %
times more soluble in cyclooctane than parent complex [1]: 11-12 times
Wt % of strontium complex [2]: 38 Wt %
times more soluble in mesitylene than parent complex [2]: 9-13 times
TGA residual mass [3]: 8.09%
